In patent US10131652B2, “Pyrimidinyloxy benzene derivatives as herbicides” (E. I. DU PONT DE NEMOURS AND COMPANY, priority 2014, dated 2018):
Where two headings read alike, the source gives them in different places.

Tests used:
Assay in all cases: Test D pre-/postemergence plant response
Type in all cases: in vivo
[1] = tested on: large (Lg) crabgrass (Digitaria sanguinalis); conditions: Digitaria sanguinalis; for pest or weed control at 16 g/ha: 16 g ai/ha; for pest or weed control at 31 g/ha: 31 g ai/ha; for pest or weed control at 62 g/ha: 62 g ai/ha; for pest or weed control at 125 g/ha: 125 g ai/ha
Method in brief: (§1)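 Preemergence: seeds in loam/sand blend treated with test chemicals in non-phytotoxic solvent with surfactant; postemergence: plants at 2–18 cm (1- to 4-leaf stage) in peat-based medium sprayed likewise. Greenhouse 13 to 15 days, then visual rating vs controls, 0 (no effect) to 100 (complete control).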

[2] = tested on: morningglory (Ipomoea coccinea); conditions: Ipomoea; for pest or weed control at 31 g/ha: 31 g ai/ha; for pest or weed control at 62 g/ha: 62 g ai/ha
Method in brief: as §1

[3] = tested on: pigweed (Amaranthus retroflexus); conditions: Amaranthus retroflexus; for pest or weed control at 31 g/ha: 31 g ai/ha; for pest or weed control at 62 g/ha: 62 g ai/ha; for pest or weed control at 125 g/ha: 125 g ai/ha
Method in brief: as §1

[4] = tested on: ragweed (common ragweed, Ambrosia elatior); conditions: Ambrosia artemisiifolia; for pest or weed control at 31 g/ha: 31 g ai/ha; for pest or weed control at 62 g/ha: 62 g ai/ha; for pest or weed control at 125 g/ha: 125 g ai/ha
Method in brief: as §1

soybean (Glycine max) = conditions: Glycine max; for plant injury at 31 g/ha: 31 g ai/ha; for plant injury at 62 g/ha: 62 g ai/ha
Method in brief: as §1

[5] = tested on: waterhemp (common waterhemp, Amaranthus rudis); conditions: Amaranthus tuberculatus; for pest or weed control at 31 g/ha: 31 g ai/ha; for pest or weed control at 62 g/ha: 62 g ai/ha; for pest or weed control at 125 g/ha: 125 g ai/ha
Method in brief: as §1

[6] = tested on: yellow nutsedge (Cyperus esculentus); conditions: Cyperus; for pest or weed control at 31 g/ha: 31 g ai/ha; for pest or weed control at 62 g/ha: 62 g ai/ha; for pest or weed control at 125 g/ha: 125 g ai/ha
Method in brief: as §1

[7] = post-emergence, Postemergence, scale 0 to 100 (0 no effect, 100 complete control), read-out: Crabgrass, Large plant response rating
[8] = post-emergence, Postemergence, scale 0 to 100, 0 no effect, 100 complete control, read-out: Plant response rating, Crabgrass, Large
[9] = pre-emergence, Preemergence, scale 0 to 100 (0 no effect, 100 complete control), read-out: Plant response rating, Crabgrass, Large
[10] = pre-emergence, Preemergence, scale 0 to 100 (0 no effect, 100 complete control), read-out: Plant response rating, Morningglory
[11] = post-emergence, Postemergence, scale 0 to 100, 0 no effect, 100 complete control, read-out: Plant response rating, Pigweed
[12] = pre-emergence, Preemergence, scale 0 to 100 (0 no effect, 100 complete control), read-out: Plant response rating, Pigweed
[13] = post-emergence, Postemergence, scale 0 to 100, 0 no effect, 100 complete control, read-out: Plant response rating, Ragweed
[14] = pre-emergence, Preemergence, scale 0 to 100 (0 no effect, 100 complete control), read-out: Plant response rating, Ragweed
[15] = pre-emergence, Preemergence, scale 0 to 100 (0 no effect, 100 complete control), read-out: Plant response rating, Soybean
[16] = post-emergence, Postemergence, scale 0 to 100, 0 no effect, 100 complete control, read-out: Plant response rating, Waterhemp
[17] = pre-emergence, Preemergence, scale 0 to 100 (0 no effect, 100 complete control), read-out: Plant response rating, Waterhemp
[18] = post-emergence, Postemergence, scale 0 to 100, 0 no effect, 100 complete control, read-out: Plant response rating, Nutsedge, Yellow
[19] = pre-emergence, Preemergence, scale 0 to 100 (0 no effect, 100 complete control), read-out: Plant response rating, Nutsedge, Yellow

Fc1cccc(Oc2ncc(Cl)cn2)c1-c1cc(C(F)F)no1 [Compound 144, 5-chloro-2-[2-[3-(difluoromethyl)-5-isoxazolyl]-3-fluorophenoxy]pyrimidine]
pest or weed control at 16 g/ha [1, 7]: 5% | pest or weed control at 31 g/ha [1, 7]: 10% | pest or weed control at 62 g/ha [1, 8]: 15% | pest or weed control at 125 g/ha [1, 8]: 20% | pest or weed control at 125 g/ha ([1]; pre-emergence, Preemergence, read-out: Plant response rating (scale 0 to 100), Crabgrass, Large): 100% | pest or weed control at 16 g/ha [1, 9]: 90% | pest or weed control at 31 g/ha [1, 9]: 98% | pest or weed control at 62 g/ha [1, 9]: 100% | pest or weed control at 31 g/ha ([2]; post-emergence, Postemergence, scale 0 to 100 (0 no effect, 100 complete control), read-out: Morningglory plant response rating): 85% | pest or weed control at 62 g/ha ([2]; post-emergence, Postemergence, scale 0 to 100, 0 no effect, 100 complete control, read-out: Plant response rating, Morningglory): 85% | pest or weed control at 125 g/ha ([2]; pre-emergence, Preemergence, 125 g ai/ha, read-out: Plant response rating (scale 0 to 100), Morningglory): 100% | pest or weed control at 16 g/ha ([2]; pre-emergence, Preemergence, 16 g ai/ha, scale 0 to 100 (0 no effect, 100 complete control), read-out: Plant response rating, Morningglory): 20% | pest or weed control at 31 g/ha [2, 10]: 75% | pest or weed control at 62 g/ha [2, 10]: 100% | pest or weed control at 31 g/ha ([3]; post-emergence, Postemergence, scale 0 to 100 (0 no effect, 100 complete control), read-out: Pigweed plant response rating): 98% | pest or weed control at 62 g/ha [3, 11]: 100% | pest or weed control at 125 g/ha [3, 11]: 100% | pest or weed control at 125 g/ha ([3]; pre-emergence, Preemergence, read-out: Plant response rating (scale 0 to 100), Pigweed): 100% | pest or weed control at 16 g/ha ([3]; pre-emergence, Preemergence, 16 g ai/ha, scale 0 to 100 (0 no effect, 100 complete control), read-out: Plant response rating, Pigweed): 100% | pest or weed control at 31 g/ha [3, 12]: 100% | pest or weed control at 62 g/ha [3, 12]: 100% | pest or weed control at 31 g/ha ([4]; post-emergence, Postemergence, scale 0 to 100 (0 no effect, 100 complete control), read-out: Ragweed plant response rating): 60% | pest or weed control at 62 g/ha [4, 13]: 70% | pest or weed control at 125 g/ha [4, 13]: 75% | pest or weed control at 125 g/ha ([4]; pre-emergence, Preemergence, read-out: Plant response rating (scale 0 to 100), Ragweed): 100% | pest or weed control at 16 g/ha ([4]; pre-emergence, Preemergence, 16 g ai/ha, scale 0 to 100 (0 no effect, 100 complete control), read-out: Plant response rating, Ragweed): 75% | pest or weed control at 31 g/ha [4, 14]: 85% | pest or weed control at 62 g/ha [4, 14]: 100% | plant injury at 31 g/ha (soybean (Glycine max); post-emergence, Postemergence, scale 0 to 100 (0 no effect, 100 complete control), read-out: Soybean plant response rating): 80% | plant injury at 62 g/ha (soybean (Glycine max); post-emergence, Postemergence, scale 0 to 100, 0 no effect, 100 complete control, read-out: Plant response rating, Soybean): 95% | plant injury at 125 g/ha (soybean (Glycine max); pre-emergence, Preemergence, 125 g ai/ha, read-out: Plant response rating (scale 0 to 100), Soybean): 95% | plant injury at 16 g/ha (soybean (Glycine max); pre-emergence, Preemergence, 16 g ai/ha, scale 0 to 100 (0 no effect, 100 complete control), read-out: Plant response rating, Soybean): 35% | plant injury at 31 g/ha (soybean (Glycine max); [15]): 75% | plant injury at 62 g/ha (soybean (Glycine max); [15]): 90% | pest or weed control at 31 g/ha ([5]; post-emergence, Postemergence, scale 0 to 100 (0 no effect, 100 complete control), read-out: Waterhemp plant response rating): 85% | pest or weed control at 62 g/ha [5, 16]: 100% | pest or weed control at 125 g/ha [5, 16]: 100% | pest or weed control at 125 g/ha ([5]; pre-emergence, Preemergence, read-out: Plant response rating (scale 0 to 100), Waterhemp): 100% | pest or weed control at 16 g/ha ([5]; pre-emergence, Preemergence, 16 g ai/ha, scale 0 to 100 (0 no effect, 100 complete control), read-out: Plant response rating, Waterhemp): 100% | pest or weed control at 31 g/ha [5, 17]: 100% | pest or weed control at 62 g/ha [5, 17]: 100% | pest or weed control at 31 g/ha ([6]; post-emergence, Postemergence, scale 0 to 100 (0 no effect, 100 complete control), read-out: Nutsedge, Yellow plant response rating): 5% | pest or weed control at 62 g/ha [6, 18]: 5% | pest or weed control at 125 g/ha [6, 18]: 5% | pest or weed control at 125 g/ha ([6]; pre-emergence, Preemergence, read-out: Plant response rating (scale 0 to 100), Nutsedge, Yellow): 85% | pest or weed control at 16 g/ha ([6]; pre-emergence, Preemergence, 16 g ai/ha, scale 0 to 100 (0 no effect, 100 complete control), read-out: Plant response rating, Nutsedge, Yellow): 15% | pest or weed control at 31 g/ha [6, 19]: 30% | pest or weed control at 62 g/ha [6, 19]: 50%
